Experimental data taken from publication PMC12668310, “High‐Throughput Synthesis and Screening of a Cyanimide Library Identifies Selective Inhibitors of ISG15‐Specific Protease mUSP18” (Angewandte Chemie (International Ed. in English), 2025).

Molecular target: T1, mUSP18 (Mus musculus, UniProt Q9WTV6)
T1 construct: (46-368); His-tag (N); made in house
T1 sequence (Q9WTV6 46-368): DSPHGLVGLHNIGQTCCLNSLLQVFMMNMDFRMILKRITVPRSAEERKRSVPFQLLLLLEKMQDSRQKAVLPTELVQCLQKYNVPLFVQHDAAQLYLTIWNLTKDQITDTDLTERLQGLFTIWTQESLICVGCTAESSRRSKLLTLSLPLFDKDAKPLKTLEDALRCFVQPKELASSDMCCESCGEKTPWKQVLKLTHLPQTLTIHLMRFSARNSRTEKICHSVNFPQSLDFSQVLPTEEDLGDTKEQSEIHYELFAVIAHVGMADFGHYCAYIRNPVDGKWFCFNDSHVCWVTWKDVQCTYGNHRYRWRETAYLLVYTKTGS
Assay: High-throughput screening, ISG15ct-RhoMP, single dose 1.25 µM
Assay type: biochemical, murine
Details: mUSP18 %inhibition; carboxylic acid (CA) building block alone; read-out: %inh CA only

Q: For `CC1CN(S(=O)(=O)c2ccc(C(=O)O)cc2)CC(C)O1` (stereo not shown) [CA389], which inhibition at 1.25 µM is on record?
A: -6.73%

Q: Which inhibition at 1.25 µM does the source give for `Cc1ncsc1C(=O)N(C)c1ccccc1C(=O)O` [CA390] here?
A: -7.59%

Q: Which inhibition at 1.25 µM does the source give for `O=C(O)Cc1ccc(-n2cccc2)cc1` [CA391] here?
A: -10.9%

Q: How did the inhibition at 1.25 µM turn out when `O=C(O)c1sccc1-n1cccc1` [CA392] was run?
A: 71.2%

Q: How did the inhibition at 1.25 µM turn out when `O=C(O)c1coc(C#Cc2ccccc2)c1` [CA393] was run?
A: -1.56%

Q: For `O=C(O)c1cccc(Oc2ccc(Cl)cc2)n1` [CA394], which inhibition at 1.25 µM is on record?
A: -5.76%

Q: How did the inhibition at 1.25 µM turn out when `O=C(O)c1cccnc1Oc1ccccc1Br` [CA395] was run?
A: -7.15%

Q: For `O=C(O)c1cnn(-c2ccc(C(F)(F)F)cc2)c1` [CA396], which inhibition at 1.25 µM is on record?
A: -5.61%

Q: With `Cc1c[nH]c(=O)n1-c1cccc(C(=O)O)c1` [CA397] as the molecule, how does the inhibition at 1.25 µM read?
A: -10.2%

Q: `Cc1ccc(Oc2ccc(C(=O)O)nc2)cc1` [CA398] was tested. Which inhibition at 1.25 µM did it give?
A: -2.93%

Q: With `O=C(O)c1ccc(OCc2cccnc2)cc1` [CA399] as the molecule, how does the inhibition at 1.25 µM read?
A: -10.1%

Q: With `CCn1cc([1C@@H]2OCCC[1C@H]2C(=O)O)cn1` [CA400] as the molecule, how does the inhibition at 1.25 µM read?
A: 8.86%

Q: Which inhibition at 1.25 µM does the source give for `O=C(O)c1ccc(C#Cc2ccccc2)cc1` [CA401] here?
A: 8.14%

Q: With `O=C(O)C1CCN1C1CCCC1` (stereo not shown) [CA402] as the molecule, how does the inhibition at 1.25 µM read?
A: 0.37%

Q: `O=C(O)c1cc(S(=O)(=O)Nc2nccs2)ccc1F` [CA403] was tested. Which inhibition at 1.25 µM did it give?
A: 0.9%

Q: For `O=C(O)C1CCCN1C(=O)C1CC1` (stereo not shown) [CA404], which inhibition at 1.25 µM is on record?
A: -4.12%

Q: How did the inhibition at 1.25 µM turn out when `O=C(O)C(OC1CCOCC1)c1ccccc1` (stereo not shown) [CA405] was run?
A: -0.68%

Q: How did the inhibition at 1.25 µM turn out when `O=C(O)CCn1ccc(C(=O)N2CCCC2)n1` [CA406] was run?
A: -2.83%

Q: `O=C(O)c1ccccc1OCc1cccs1` [CA407] was tested. Which inhibition at 1.25 µM did it give?
A: -5.56%

Q: Which inhibition at 1.25 µM does the source give for `O=C(O)c1c[nH]nc1-c1ccncc1` [CA408] here?
A: -2.77%

Q: `COc1ccccc1N1CC(C(=O)O)CCC1=O` (stereo not shown) [CA409] was tested. Which inhibition at 1.25 µM did it give?
A: -0.2%

Q: `Cn1nccc1[1C@@H]1C[1C@H]1C(=O)O` [CA410] was tested. Which inhibition at 1.25 µM did it give?
A: -4.36%

Q: Which inhibition at 1.25 µM does the source give for `O=C(O)C1CCCN(c2ncccn2)C1` (stereo not shown) [CA411] here?
A: -4.05%

Q: With `O=C(O)c1ccc(-c2ccncc2)[nH]c1=O` [CA412] as the molecule, how does the inhibition at 1.25 µM read?
A: -8.86%

Q: With `Cc1onc(C(=O)O)c1CN1CCN(C)CC1` [CA413] as the molecule, how does the inhibition at 1.25 µM read?
A: -6.3%

Q: For `O=C(O)c1cccn1Cc1ccccn1` [CA414], which inhibition at 1.25 µM is on record?
A: -4.22%

Q: How did the inhibition at 1.25 µM turn out when `O=C(O)CCn1nc(C(F)(F)F)cc1C1CC1` [CA415] was run?
A: -5.69%

Q: With `Cc1csc(-c2cccc(C(=O)O)c2)n1` [CA416] as the molecule, how does the inhibition at 1.25 µM read?
A: -3.85%

Q: How did the inhibition at 1.25 µM turn out when `O=C(O)c1cc(COc2ccc(F)cc2F)on1` [CA417] was run?
A: -8.45%

Q: How did the inhibition at 1.25 µM turn out when `CC(=O)N1CCN(S(=O)(=O)c2cccc(C(=O)O)c2)CC1` [CA418] was run?
A: -5%

Q: How did the inhibition at 1.25 µM turn out when `Cn1cc(-c2cc(C(=O)O)n[nH]2)cn1` [CA419] was run?
A: -7.23%

Q: For `Cc1cc(C)n(-c2ccc(Cl)c(C(=O)O)n2)n1` [CA420], which inhibition at 1.25 µM is on record?
A: -5.16%

Q: For `O=C(O)Cc1csc(NS(=O)(=O)c2ccccc2)n1` [CA421], which inhibition at 1.25 µM is on record?
A: -4.79%

Q: With `O=C(O)c1cccc(S(=O)(=O)N2CCOCC2)c1` [CA422] as the molecule, how does the inhibition at 1.25 µM read?
A: -10.9%

Q: How did the inhibition at 1.25 µM turn out when `O=C(O)Cc1coc(-c2cccs2)n1` [CA423] was run?
A: 8.99%

Q: Which inhibition at 1.25 µM does the source give for `COc1ccc(S(=O)(=O)N(CCC(=O)O)Cc2ccccc2)cc1` [CA424] here?
A: 3.84%

Q: With `Cc1oc(-c2ccsc2)nc1CC(=O)O` [CA425] as the molecule, how does the inhibition at 1.25 µM read?
A: 2.13%

Q: Which inhibition at 1.25 µM does the source give for `Cc1ccc(C=CS(=O)(=O)N2CCC(C(=O)O)CC2)cc1` [CA426] here?
A: -0.61%

Q: For `O=C(O)c1cccnc1Oc1ccc(Cl)cc1Cl` [CA427], which inhibition at 1.25 µM is on record?
A: -5.52%

Q: Which inhibition at 1.25 µM does the source give for `O=C(O)Cc1csc(-c2ccccc2)n1` [CA428] here?
A: -0.27%

Same assay, conditions: mUSP18 %inhibition; carboxylic acid (CA) with coupling reagents DIC/HOBT; read-out: %inh CA + DIC/HOBT

Q: For `CC1CN(S(=O)(=O)c2ccc(C(=O)O)cc2)CC(C)O1` (stereo not shown) [CA389], which inhibition at 1.25 µM is on record?
A: -5.95%

Q: With `Cc1ncsc1C(=O)N(C)c1ccccc1C(=O)O` [CA390] as the molecule, how does the inhibition at 1.25 µM read?
A: -4.7%

Q: Which inhibition at 1.25 µM does the source give for `O=C(O)Cc1ccc(-n2cccc2)cc1` [CA391] here?
A: 63.9%

Q: How did the inhibition at 1.25 µM turn out when `O=C(O)c1sccc1-n1cccc1` [CA392] was run?
A: 56.5%

Q: `O=C(O)c1coc(C#Cc2ccccc2)c1` [CA393] was tested. Which inhibition at 1.25 µM did it give?
A: -1.99%

Q: How did the inhibition at 1.25 µM turn out when `O=C(O)c1cccc(Oc2ccc(Cl)cc2)n1` [CA394] was run?
A: -1.48%

Q: How did the inhibition at 1.25 µM turn out when `O=C(O)c1cccnc1Oc1ccccc1Br` [CA395] was run?
A: -4.5%

Q: With `O=C(O)c1cnn(-c2ccc(C(F)(F)F)cc2)c1` [CA396] as the molecule, how does the inhibition at 1.25 µM read?
A: 1.41%

Q: For `Cc1c[nH]c(=O)n1-c1cccc(C(=O)O)c1` [CA397], which inhibition at 1.25 µM is on record?
A: -2.23%

Q: With `Cc1ccc(Oc2ccc(C(=O)O)nc2)cc1` [CA398] as the molecule, how does the inhibition at 1.25 µM read?
A: 2.57%

Q: How did the inhibition at 1.25 µM turn out when `O=C(O)c1ccc(OCc2cccnc2)cc1` [CA399] was run?
A: -0.24%

Q: How did the inhibition at 1.25 µM turn out when `CCn1cc([1C@@H]2OCCC[1C@H]2C(=O)O)cn1` [CA400] was run?
A: 4.12%

Q: With `O=C(O)c1ccc(C#Cc2ccccc2)cc1` [CA401] as the molecule, how does the inhibition at 1.25 µM read?
A: -4.27%

Q: Which inhibition at 1.25 µM does the source give for `O=C(O)C1CCN1C1CCCC1` (stereo not shown) [CA402] here?
A: -9.76%

Q: How did the inhibition at 1.25 µM turn out when `O=C(O)c1cc(S(=O)(=O)Nc2nccs2)ccc1F` [CA403] was run?
A: -6.97%

Q: For `O=C(O)C1CCCN1C(=O)C1CC1` (stereo not shown) [CA404], which inhibition at 1.25 µM is on record?
A: -12.2%

Q: `O=C(O)C(OC1CCOCC1)c1ccccc1` (stereo not shown) [CA405] was tested. Which inhibition at 1.25 µM did it give?
A: -7.73%

Q: Which inhibition at 1.25 µM does the source give for `O=C(O)CCn1ccc(C(=O)N2CCCC2)n1` [CA406] here?
A: -11.1%

Q: How did the inhibition at 1.25 µM turn out when `O=C(O)c1ccccc1OCc1cccs1` [CA407] was run?
A: 33.9%

Q: For `O=C(O)c1c[nH]nc1-c1ccncc1` [CA408], which inhibition at 1.25 µM is on record?
A: -3.75%

Q: How did the inhibition at 1.25 µM turn out when `COc1ccccc1N1CC(C(=O)O)CCC1=O` (stereo not shown) [CA409] was run?
A: -6.22%

Q: `Cn1nccc1[1C@@H]1C[1C@H]1C(=O)O` [CA410] was tested. Which inhibition at 1.25 µM did it give?
A: -9.17%

Q: With `O=C(O)C1CCCN(c2ncccn2)C1` (stereo not shown) [CA411] as the molecule, how does the inhibition at 1.25 µM read?
A: -6.74%

Q: Which inhibition at 1.25 µM does the source give for `O=C(O)c1ccc(-c2ccncc2)[nH]c1=O` [CA412] here?
A: -7.67%

Q: With `Cc1onc(C(=O)O)c1CN1CCN(C)CC1` [CA413] as the molecule, how does the inhibition at 1.25 µM read?
A: -3.44%

Q: Which inhibition at 1.25 µM does the source give for `O=C(O)c1cccn1Cc1ccccn1` [CA414] here?
A: -9%

Q: How did the inhibition at 1.25 µM turn out when `O=C(O)CCn1nc(C(F)(F)F)cc1C1CC1` [CA415] was run?
A: -4.3%

Q: For `Cc1csc(-c2cccc(C(=O)O)c2)n1` [CA416], which inhibition at 1.25 µM is on record?
A: -4.32%

Q: `O=C(O)c1cc(COc2ccc(F)cc2F)on1` [CA417] was tested. Which inhibition at 1.25 µM did it give?
A: -7.97%

Q: `CC(=O)N1CCN(S(=O)(=O)c2cccc(C(=O)O)c2)CC1` [CA418] was tested. Which inhibition at 1.25 µM did it give?
A: -2.55%

Q: With `Cn1cc(-c2cc(C(=O)O)n[nH]2)cn1` [CA419] as the molecule, how does the inhibition at 1.25 µM read?
A: -1.62%

Q: How did the inhibition at 1.25 µM turn out when `Cc1cc(C)n(-c2ccc(Cl)c(C(=O)O)n2)n1` [CA420] was run?
A: -0.88%

Q: Which inhibition at 1.25 µM does the source give for `O=C(O)Cc1csc(NS(=O)(=O)c2ccccc2)n1` [CA421] here?
A: -0.58%

Q: How did the inhibition at 1.25 µM turn out when `O=C(O)c1cccc(S(=O)(=O)N2CCOCC2)c1` [CA422] was run?
A: -0.86%

Q: Which inhibition at 1.25 µM does the source give for `O=C(O)Cc1coc(-c2cccs2)n1` [CA423] here?
A: -4.85%

Q: Which inhibition at 1.25 µM does the source give for `COc1ccc(S(=O)(=O)N(CCC(=O)O)Cc2ccccc2)cc1` [CA424] here?
A: -12.6%

Q: Which inhibition at 1.25 µM does the source give for `Cc1oc(-c2ccsc2)nc1CC(=O)O` [CA425] here?
A: -7.19%

Q: For `Cc1ccc(C=CS(=O)(=O)N2CCC(C(=O)O)CC2)cc1` [CA426], which inhibition at 1.25 µM is on record?
A: -6.87%

Q: With `O=C(O)c1cccnc1Oc1ccc(Cl)cc1Cl` [CA427] as the molecule, how does the inhibition at 1.25 µM read?
A: -6.68%

Q: For `O=C(O)Cc1csc(-c2ccccc2)n1` [CA428], which inhibition at 1.25 µM is on record?
A: -5.62%

Same assay, conditions: screened with and without DIC/HOBt

Q: With `O=C(O)Cc1ccc(-n2cccc2)cc1` [CA391] as the molecule, how does the “inhibition of mUSP18 by individual CA's and coupling reagents” value read?
A: could inhibit mUSP18

Q: With `O=C(O)c1sccc1-n1cccc1` [CA392] as the molecule, how does the “inhibition of mUSP18 by individual CA's and coupling reagents” value read?
A: could inhibit mUSP18
